Assay results reported in the kinase profiling compilation of Christmann-Franck et al. (2016).

Key:
Assay in all cases: KINOMEscan competition binding
Conditions in all cases: compound 10.0 µM
EPHB1 (human) = EPHB1 (human) (UniProt P54762)
[1] = tested on: EGFR (human), P00533 [L858R]
FES (human) = FES (human) (UniProt P07332)
CDKL2 (human) = CDKL2 (human) (UniProt Q92772)
MAPK9 (human) = MAPK9 (human) (UniProt P45984)
ABL2 (human) = ABL2 (human) (UniProt P42684)
[2] = tested on: ABL1 (human), P00519 [F317I]
ULK1 (human) = ULK1 (human) (UniProt O75385)
WEE1 (human) = WEE1 (human) (UniProt P30291)
CDC42BPB (human) = CDC42BPB (human) (UniProt Q9Y5S2)
CAMK4 (human) = CAMK4 (human) (UniProt Q16566)
PRKCD (human) = PRKCD (human) (UniProt Q05655)
PRKCE (human) = PRKCE (human) (UniProt Q02156)
ADCK3 (human) = ADCK3 (human) (UniProt Q8NI60)
PRKG1 (human) = PRKG1 (human) (UniProt Q13976)
FGFR1 (human) = FGFR1 (human) (UniProt P11362)
CAMK1G (human) = CAMK1G (human) (UniProt Q96NX5)
RPS6KA3 KD1 (human) = RPS6KA3 KD1 (human) (UniProt P51812)
[3] = molecular target: JAK1 JH1 catalytic (human) (UniProt P23458)
CSK (human) = CSK (human) (UniProt P41240)
BMX (human) = BMX (human) (UniProt P51813)
PKN2 (human) = PKN2 (human) (UniProt Q16513)
CAMK2A (human) = CAMK2A (human) (UniProt Q9UQM7)
MAPK13 (human) = MAPK13 (human) (UniProt O15264)
STK32B (human) = STK32B (human) (UniProt Q9NY57)
LTK (human) = LTK (human) (UniProt P29376)
MUSK (human) = MUSK (human) (UniProt O15146)
MAP4K5 (human) = MAP4K5 (human) (UniProt Q9Y4K4)
PAK3 (human) = PAK3 (human) (UniProt O75914)
ABL1 (human) = ABL1 (human) (UniProt P00519)
MAP4K1 (human) = MAP4K1 (human) (UniProt Q92918)
PAK7 (human) = PAK7 (human) (UniProt Q9P286)
SRPK1 (human) = SRPK1 (human) (UniProt Q96SB4)
RPS6KA6 KD1 (human) = RPS6KA6 KD1 (human) (UniProt Q9UK32)
EPHA4 (human) = EPHA4 (human) (UniProt P54764)
AKT3 (human) = AKT3 (human) (UniProt Q9Y243)
NTRK1 (human) = NTRK1 (human) (UniProt P04629)
PTK2B (human) = PTK2B (human) (UniProt Q14289)
NUAK2 (human) = NUAK2 (human) (UniProt Q9H093)
DDR1 (human) = DDR1 (human) (UniProt Q08345)
SLK (human) = SLK (human) (UniProt Q9H2G2)
IKBKB (human) = IKBKB (human) (UniProt O14920)

Chain of PTK2B (human) (Q14289 whole entry, looked up): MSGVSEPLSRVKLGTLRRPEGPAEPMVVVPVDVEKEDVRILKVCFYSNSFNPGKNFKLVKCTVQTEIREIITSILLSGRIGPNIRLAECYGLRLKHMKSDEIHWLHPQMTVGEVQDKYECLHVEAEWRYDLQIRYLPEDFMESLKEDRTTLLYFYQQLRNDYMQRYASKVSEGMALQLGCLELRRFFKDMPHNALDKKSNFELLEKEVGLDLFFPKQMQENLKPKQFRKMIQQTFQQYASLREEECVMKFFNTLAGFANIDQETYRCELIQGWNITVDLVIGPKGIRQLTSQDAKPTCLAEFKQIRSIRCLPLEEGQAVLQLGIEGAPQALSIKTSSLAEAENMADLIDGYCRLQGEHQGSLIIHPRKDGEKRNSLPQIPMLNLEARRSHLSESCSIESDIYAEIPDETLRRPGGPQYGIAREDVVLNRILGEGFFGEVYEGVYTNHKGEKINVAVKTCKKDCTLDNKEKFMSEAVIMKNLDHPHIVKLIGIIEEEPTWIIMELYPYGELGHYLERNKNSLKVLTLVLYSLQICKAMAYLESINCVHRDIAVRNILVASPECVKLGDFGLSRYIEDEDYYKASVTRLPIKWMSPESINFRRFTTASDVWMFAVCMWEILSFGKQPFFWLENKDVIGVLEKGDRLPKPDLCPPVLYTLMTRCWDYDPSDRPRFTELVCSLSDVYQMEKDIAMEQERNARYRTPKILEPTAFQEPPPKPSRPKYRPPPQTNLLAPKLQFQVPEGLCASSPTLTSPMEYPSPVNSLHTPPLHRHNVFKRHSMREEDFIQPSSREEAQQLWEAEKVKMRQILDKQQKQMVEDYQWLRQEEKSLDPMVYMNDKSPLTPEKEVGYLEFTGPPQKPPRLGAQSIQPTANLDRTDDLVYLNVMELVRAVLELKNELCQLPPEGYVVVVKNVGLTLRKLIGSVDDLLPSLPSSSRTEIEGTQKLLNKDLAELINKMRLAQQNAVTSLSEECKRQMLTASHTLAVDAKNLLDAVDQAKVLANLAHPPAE
Chain of ADCK3 (human) (Q8NI60 whole entry, looked up): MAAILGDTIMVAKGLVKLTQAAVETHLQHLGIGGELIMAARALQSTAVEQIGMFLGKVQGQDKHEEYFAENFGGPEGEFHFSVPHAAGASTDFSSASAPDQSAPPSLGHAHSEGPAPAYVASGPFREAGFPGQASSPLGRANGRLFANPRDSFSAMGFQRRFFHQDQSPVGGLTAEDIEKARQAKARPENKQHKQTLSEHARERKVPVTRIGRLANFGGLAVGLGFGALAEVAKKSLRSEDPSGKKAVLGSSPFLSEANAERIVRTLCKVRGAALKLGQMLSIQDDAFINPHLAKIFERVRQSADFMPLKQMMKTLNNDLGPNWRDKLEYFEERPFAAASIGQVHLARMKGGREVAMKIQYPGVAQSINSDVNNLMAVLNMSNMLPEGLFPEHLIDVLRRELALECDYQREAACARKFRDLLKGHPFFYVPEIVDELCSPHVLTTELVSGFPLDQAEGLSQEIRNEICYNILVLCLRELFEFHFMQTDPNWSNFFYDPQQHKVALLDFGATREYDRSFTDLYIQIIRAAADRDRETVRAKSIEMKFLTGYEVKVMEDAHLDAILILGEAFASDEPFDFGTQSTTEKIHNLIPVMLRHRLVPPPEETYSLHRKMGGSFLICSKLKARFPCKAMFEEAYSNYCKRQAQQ
Chain of ABL1 (human) (P00519 whole entry, looked up): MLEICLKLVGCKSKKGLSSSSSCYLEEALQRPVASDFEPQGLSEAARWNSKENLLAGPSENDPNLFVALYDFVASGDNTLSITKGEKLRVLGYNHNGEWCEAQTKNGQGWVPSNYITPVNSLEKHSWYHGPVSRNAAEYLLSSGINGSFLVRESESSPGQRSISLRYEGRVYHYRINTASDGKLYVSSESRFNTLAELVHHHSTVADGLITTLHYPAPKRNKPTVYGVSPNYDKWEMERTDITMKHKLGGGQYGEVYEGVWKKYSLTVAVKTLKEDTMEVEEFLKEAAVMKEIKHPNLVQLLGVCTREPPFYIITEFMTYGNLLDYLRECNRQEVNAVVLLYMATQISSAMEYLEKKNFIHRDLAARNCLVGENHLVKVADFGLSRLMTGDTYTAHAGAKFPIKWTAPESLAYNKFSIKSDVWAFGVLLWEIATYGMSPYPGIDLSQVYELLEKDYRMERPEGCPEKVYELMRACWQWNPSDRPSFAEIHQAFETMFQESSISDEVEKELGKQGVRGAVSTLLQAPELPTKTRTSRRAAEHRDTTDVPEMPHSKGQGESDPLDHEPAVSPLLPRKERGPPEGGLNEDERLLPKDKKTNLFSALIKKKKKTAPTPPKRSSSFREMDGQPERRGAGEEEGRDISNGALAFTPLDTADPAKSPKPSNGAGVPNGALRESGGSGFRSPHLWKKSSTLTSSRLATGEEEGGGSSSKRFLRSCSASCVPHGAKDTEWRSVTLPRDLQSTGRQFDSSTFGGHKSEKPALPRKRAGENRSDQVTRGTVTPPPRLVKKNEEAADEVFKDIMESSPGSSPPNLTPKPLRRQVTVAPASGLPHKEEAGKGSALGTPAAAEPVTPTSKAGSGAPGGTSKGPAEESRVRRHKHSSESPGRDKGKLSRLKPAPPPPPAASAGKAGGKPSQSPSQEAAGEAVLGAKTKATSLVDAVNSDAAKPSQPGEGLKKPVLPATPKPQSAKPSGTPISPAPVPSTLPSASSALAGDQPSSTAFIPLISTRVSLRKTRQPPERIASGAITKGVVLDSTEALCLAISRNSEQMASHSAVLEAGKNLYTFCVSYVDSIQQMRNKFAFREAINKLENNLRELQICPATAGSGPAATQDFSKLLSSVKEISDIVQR
Chain of CAMK1G (human) (Q96NX5 whole entry, looked up): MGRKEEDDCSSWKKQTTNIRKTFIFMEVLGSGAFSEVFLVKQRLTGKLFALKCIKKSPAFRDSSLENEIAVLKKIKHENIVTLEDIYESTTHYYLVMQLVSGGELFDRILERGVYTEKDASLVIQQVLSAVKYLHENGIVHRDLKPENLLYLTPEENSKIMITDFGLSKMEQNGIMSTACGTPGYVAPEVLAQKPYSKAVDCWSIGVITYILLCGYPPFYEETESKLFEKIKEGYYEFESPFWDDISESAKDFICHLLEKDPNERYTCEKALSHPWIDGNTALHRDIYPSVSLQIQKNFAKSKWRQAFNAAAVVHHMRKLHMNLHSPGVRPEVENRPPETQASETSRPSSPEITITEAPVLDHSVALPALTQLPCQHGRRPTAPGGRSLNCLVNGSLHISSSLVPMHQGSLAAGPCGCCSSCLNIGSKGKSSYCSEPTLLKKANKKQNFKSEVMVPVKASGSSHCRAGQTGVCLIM
Chain of LTK (human) (P29376 whole entry, looked up): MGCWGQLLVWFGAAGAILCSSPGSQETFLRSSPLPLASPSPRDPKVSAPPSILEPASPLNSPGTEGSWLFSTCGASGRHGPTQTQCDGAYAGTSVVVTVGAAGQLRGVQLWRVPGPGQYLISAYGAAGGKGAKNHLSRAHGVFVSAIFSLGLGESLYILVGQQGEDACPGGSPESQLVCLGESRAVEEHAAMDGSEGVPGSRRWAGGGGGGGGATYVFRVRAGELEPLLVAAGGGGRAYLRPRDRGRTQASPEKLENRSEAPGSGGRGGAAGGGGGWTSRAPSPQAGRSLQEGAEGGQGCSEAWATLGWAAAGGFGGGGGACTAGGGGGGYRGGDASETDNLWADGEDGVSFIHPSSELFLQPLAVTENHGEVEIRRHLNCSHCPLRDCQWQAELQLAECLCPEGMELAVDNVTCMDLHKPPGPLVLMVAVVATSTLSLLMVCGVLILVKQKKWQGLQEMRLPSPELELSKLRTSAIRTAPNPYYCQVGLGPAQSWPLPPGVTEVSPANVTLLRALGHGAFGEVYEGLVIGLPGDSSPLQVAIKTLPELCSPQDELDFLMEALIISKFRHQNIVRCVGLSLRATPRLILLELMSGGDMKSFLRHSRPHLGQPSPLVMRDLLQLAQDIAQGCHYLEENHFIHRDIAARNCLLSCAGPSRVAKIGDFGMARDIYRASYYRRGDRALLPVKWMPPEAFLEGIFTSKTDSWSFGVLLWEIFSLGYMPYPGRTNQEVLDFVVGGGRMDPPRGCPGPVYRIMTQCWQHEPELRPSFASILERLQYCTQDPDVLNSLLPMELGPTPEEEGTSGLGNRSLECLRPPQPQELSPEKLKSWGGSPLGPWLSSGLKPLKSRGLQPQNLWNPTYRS
Chain of PRKG1 (human) (Q13976 whole entry, looked up): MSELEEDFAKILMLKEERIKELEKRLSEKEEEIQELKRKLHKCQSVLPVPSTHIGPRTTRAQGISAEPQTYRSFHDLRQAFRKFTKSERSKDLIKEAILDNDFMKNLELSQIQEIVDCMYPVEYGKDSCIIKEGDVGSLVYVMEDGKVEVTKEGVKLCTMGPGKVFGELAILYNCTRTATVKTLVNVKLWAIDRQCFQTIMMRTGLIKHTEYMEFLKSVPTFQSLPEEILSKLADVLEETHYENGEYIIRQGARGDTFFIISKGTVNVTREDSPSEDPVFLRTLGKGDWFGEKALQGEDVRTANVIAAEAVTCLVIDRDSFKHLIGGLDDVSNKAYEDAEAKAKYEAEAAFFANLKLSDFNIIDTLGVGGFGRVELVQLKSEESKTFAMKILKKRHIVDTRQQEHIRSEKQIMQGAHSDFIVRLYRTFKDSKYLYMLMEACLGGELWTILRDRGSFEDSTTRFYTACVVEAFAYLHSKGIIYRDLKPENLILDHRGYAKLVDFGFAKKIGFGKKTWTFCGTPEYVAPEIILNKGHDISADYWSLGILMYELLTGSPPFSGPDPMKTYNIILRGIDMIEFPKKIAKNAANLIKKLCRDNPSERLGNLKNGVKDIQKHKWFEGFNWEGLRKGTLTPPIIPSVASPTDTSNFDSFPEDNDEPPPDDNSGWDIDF
Chain of ABL1 (human), P00519 [F317I] (P00519 whole entry F317I, looked up): as the sequence (P00519 whole entry, looked up) above, with F317I counted along it

For COc1cc(N2CCN(C)CC2)ccc1Nc1ncc2c(n1)N(C)c1ccccc1N(C)C2=O, the kinase still bound, per cent of control (EPHB1 (human)) was 100%, the kinase still bound, per cent of control [1] was 43% and the kinase still bound, per cent of control (FES (human)) was 100%. The kinase still bound, per cent of control (CDKL2 (human)) was 81%, the kinase still bound, per cent of control (MAPK9 (human)) was 87% and the kinase still bound, per cent of control (ABL2 (human)) was 98%. For the same compound, the kinase still bound, per cent of control [2] was 67%, the kinase still bound, per cent of control (ULK1 (human)) was 100% and the kinase still bound, per cent of control (WEE1 (human)) was 92%. For the same compound, the kinase still bound, per cent of control (CDC42BPB (human)) was 100%, the kinase still bound, per cent of control (CAMK4 (human)) was 100% and the kinase still bound, per cent of control (PRKCD (human)) was 100%. It also gave a kinase still bound, per cent of control (PRKCE (human)) of 60%, a kinase still bound, per cent of control (ADCK3 (human)) of 85% and a kinase still bound, per cent of control (PRKG1 (human)) of 100%. For the same compound, the kinase still bound, per cent of control (FGFR1 (human)) was 100%, the kinase still bound, per cent of control (CAMK1G (human)) was 100% and the kinase still bound, per cent of control (RPS6KA3 KD1 (human)) was 92%. For the same compound, the kinase still bound, per cent of control [3] was 53%, the kinase still bound, per cent of control (CSK (human)) was 95% and the kinase still bound, per cent of control (BMX (human)) was 96%. The kinase still bound, per cent of control (PKN2 (human)) was 100%, the kinase still bound, per cent of control (CAMK2A (human)) was 75% and the kinase still bound, per cent of control (MAPK13 (human)) was 100%. The kinase still bound, per cent of control (STK32B (human)) was 100%, the kinase still bound, per cent of control (LTK (human)) was 26% and the kinase still bound, per cent of control (MUSK (human)) was 100%. For the same compound, the kinase still bound, per cent of control (MAP4K5 (human)) was 91%, the kinase still bound, per cent of control (PAK3 (human)) was 93% and the kinase still bound, per cent of control (ABL1 (human)) was 100%. The kinase still bound, per cent of control (MAP4K1 (human)) was 100%, the kinase still bound, per cent of control (PAK7 (human)) was 79% and the kinase still bound, per cent of control (SRPK1 (human)) was 100%. It also gave a kinase still bound, per cent of control (RPS6KA6 KD1 (human)) of 100%, a kinase still bound, per cent of control (EPHA4 (human)) of 95% and a kinase still bound, per cent of control (AKT3 (human)) of 100%. The kinase still bound, per cent of control (NTRK1 (human)) was 76%, the kinase still bound, per cent of control (PTK2B (human)) was 100% and the kinase still bound, per cent of control (NUAK2 (human)) was 100%. It also gave a kinase still bound, per cent of control (DDR1 (human)) of 93%, a kinase still bound, per cent of control (SLK (human)) of 100% and a kinase still bound, per cent of control (IKBKB (human)) of 75%.
COc1cc(N2CCC(O)CC2)ccc1Nc1ncc2c(n1)N1CCc3cccc(c31)C(=O)N2C was tested, and the kinase still bound, per cent of control (EPHB1 (human)) was 99%, the kinase still bound, per cent of control [1] was 88% and the kinase still bound, per cent of control (FES (human)) was 93%. The kinase still bound, per cent of control (CDKL2 (human)) was 100%, the kinase still bound, per cent of control (MAPK9 (human)) was 51% and the kinase still bound, per cent of control (ABL2 (human)) was 96%. The kinase still bound, per cent of control [2] was 88%, the kinase still bound, per cent of control (ULK1 (human)) was 78% and the kinase still bound, per cent of control (WEE1 (human)) was 100%. For the same compound, the kinase still bound, per cent of control (CDC42BPB (human)) was 94%, the kinase still bound, per cent of control (CAMK4 (human)) was 100% and the kinase still bound, per cent of control (PRKCD (human)) was 100%. The kinase still bound, per cent of control (PRKCE (human)) was 91%, the kinase still bound, per cent of control (ADCK3 (human)) was 78% and the kinase still bound, per cent of control (PRKG1 (human)) was 85%. For the same compound, the kinase still bound, per cent of control (FGFR1 (human)) was 95%, the kinase still bound, per cent of control (CAMK1G (human)) was 57% and the kinase still bound, per cent of control (RPS6KA3 KD1 (human)) was 55%. It also gave a kinase still bound, per cent of control [3] of 100%, a kinase still bound, per cent of control (CSK (human)) of 90% and a kinase still bound, per cent of control (BMX (human)) of 93%. For the same compound, the kinase still bound, per cent of control (PKN2 (human)) was 100%, the kinase still bound, per cent of control (CAMK2A (human)) was 80% and the kinase still bound, per cent of control (MAPK13 (human)) was 87%. It also gave a kinase still bound, per cent of control (STK32B (human)) of 100%, a kinase still bound, per cent of control (LTK (human)) of 100% and a kinase still bound, per cent of control (MUSK (human)) of 100%. The kinase still bound, per cent of control (MAP4K5 (human)) was 99%, the kinase still bound, per cent of control (PAK3 (human)) was 58% and the kinase still bound, per cent of control (ABL1 (human)) was 100%. It also gave a kinase still bound, per cent of control (MAP4K1 (human)) of 96%, a kinase still bound, per cent of control (PAK7 (human)) of 64% and a kinase still bound, per cent of control (SRPK1 (human)) of 100%. For the same compound, the kinase still bound, per cent of control (RPS6KA6 KD1 (human)) was 87%, the kinase still bound, per cent of control (EPHA4 (human)) was 98% and the kinase still bound, per cent of control (AKT3 (human)) was 61%. The kinase still bound, per cent of control (NTRK1 (human)) was 82%, the kinase still bound, per cent of control (PTK2B (human)) was 57% and the kinase still bound, per cent of control (NUAK2 (human)) was 60%. It also gave a kinase still bound, per cent of control (DDR1 (human)) of 100%, a kinase still bound, per cent of control (SLK (human)) of 95% and a kinase still bound, per cent of control (IKBKB (human)) of 92%.
